# Article PMC10176470, “Engaging a Non-catalytic Cysteine Residue Drives Potent and Selective Inhibition of Caspase-6” (Journal of the American Chemical Society, 2023)
# Tests used:
# Test in all cases: SILAC proteomics / in-gel fluorescence, competition of probe 13-t labeling by 3a
# [1] = biological target: proteins of HEK293T cells transiently overexpressing caspase-6 (Homo sapiens, UniProt P05388); conditions: Comp; protein RPLP0 P05388
# [2] = biological target: proteins of HEK293T cells transiently overexpressing caspase-6 (Homo sapiens, UniProt P13010); conditions: Comp; protein XRCC5 P13010
# [3] = biological target: proteins of HEK293T cells transiently overexpressing caspase-6 (Homo sapiens, UniProt P14868); conditions: Comp; protein DARS P14868
# [4] = biological target: T1, proteins of HEK293T cells transiently overexpressing caspase-6 (Homo sapiens, UniProt P22234); conditions: Comp; protein PAICS P22234
# T1 sequence (P22234 1-425): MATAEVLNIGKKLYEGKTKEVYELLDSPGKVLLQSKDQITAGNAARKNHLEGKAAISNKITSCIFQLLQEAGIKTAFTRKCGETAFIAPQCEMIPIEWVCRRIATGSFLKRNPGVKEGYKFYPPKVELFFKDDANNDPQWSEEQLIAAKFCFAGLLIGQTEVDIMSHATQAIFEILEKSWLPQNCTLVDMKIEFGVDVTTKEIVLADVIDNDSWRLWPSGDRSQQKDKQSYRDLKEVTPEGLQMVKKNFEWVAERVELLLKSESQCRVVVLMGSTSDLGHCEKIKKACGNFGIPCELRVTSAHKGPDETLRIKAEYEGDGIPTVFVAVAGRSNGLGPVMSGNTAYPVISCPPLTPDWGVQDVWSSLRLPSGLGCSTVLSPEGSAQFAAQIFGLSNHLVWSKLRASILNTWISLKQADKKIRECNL
# [5] = biological target: T2, proteins of HEK293T cells transiently overexpressing caspase-6 (Homo sapiens, UniProt P25789)
# T2 sequence (P25789 1-261): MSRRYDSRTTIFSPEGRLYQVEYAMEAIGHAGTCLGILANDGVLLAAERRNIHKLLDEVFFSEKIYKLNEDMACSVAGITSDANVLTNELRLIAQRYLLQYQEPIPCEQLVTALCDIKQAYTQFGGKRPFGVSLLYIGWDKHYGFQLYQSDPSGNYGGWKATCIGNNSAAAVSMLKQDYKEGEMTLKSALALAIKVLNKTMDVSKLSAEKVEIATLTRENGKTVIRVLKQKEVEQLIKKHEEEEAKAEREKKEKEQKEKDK
# [6] = biological target: proteins of HEK293T cells transiently overexpressing caspase-6 (Homo sapiens, UniProt P27348); conditions: Comp; protein YWHAQ P27348
# [7] = biological target: proteins of HEK293T cells transiently overexpressing caspase-6 (Homo sapiens, UniProt P34897); conditions: Comp; protein SHMT2 P34897
# [8] = biological target: proteins of HEK293T cells transiently overexpressing caspase-6 (Homo sapiens, UniProt P46777); conditions: Comp; protein RPL5 P46777
# [9] = biological target: proteins of HEK293T cells transiently overexpressing caspase-6 (Homo sapiens, UniProt P52209); conditions: Comp; protein PGD P52209
# [10] = biological target: proteins of HEK293T cells transiently overexpressing caspase-6 (Homo sapiens, UniProt P52272); conditions: Comp; protein HNRNPM P52272
# [11] = biological target: proteins of HEK293T cells transiently overexpressing caspase-6 (Homo sapiens, UniProt P62826); conditions: Comp; protein RAN P62826
# [12] = biological target: proteins of HEK293T cells transiently overexpressing caspase-6 (Homo sapiens, UniProt P63244); conditions: Comp; protein GNB2L1 P63244
# [13] = biological target: proteins of HEK293T cells transiently overexpressing caspase-6 (Homo sapiens, UniProt P63261); conditions: Comp; protein ACTG1 P63261
# [14] = biological target: proteins of HEK293T cells transiently overexpressing caspase-6 (Homo sapiens, UniProt Q00839); conditions: Comp; protein HNRNPU Q00839
# [15] = biological target: proteins of HEK293T cells transiently overexpressing caspase-6 (Homo sapiens, UniProt Q15029); conditions: Comp; protein EFTUD2 Q15029
# [16] = biological target: proteins of HEK293T cells transiently overexpressing caspase-6 (Homo sapiens, UniProt Q15185); conditions: Comp; protein PTGES3 Q15185
# [17] = biological target: proteins of HEK293T cells transiently overexpressing caspase-6 (Homo sapiens, UniProt Q7KZF4); conditions: Comp; protein SND1 Q7KZF4
# [18] = protein PSMA4 (P25789), Exp Comp, analysis C6, p 0.0625, 5 peptides
# Sequence of proteins of HEK293T cells transiently overexpressing caspase-6 (Homo sapiens, UniProt Q7KZF4) (Q7KZF4 whole entry): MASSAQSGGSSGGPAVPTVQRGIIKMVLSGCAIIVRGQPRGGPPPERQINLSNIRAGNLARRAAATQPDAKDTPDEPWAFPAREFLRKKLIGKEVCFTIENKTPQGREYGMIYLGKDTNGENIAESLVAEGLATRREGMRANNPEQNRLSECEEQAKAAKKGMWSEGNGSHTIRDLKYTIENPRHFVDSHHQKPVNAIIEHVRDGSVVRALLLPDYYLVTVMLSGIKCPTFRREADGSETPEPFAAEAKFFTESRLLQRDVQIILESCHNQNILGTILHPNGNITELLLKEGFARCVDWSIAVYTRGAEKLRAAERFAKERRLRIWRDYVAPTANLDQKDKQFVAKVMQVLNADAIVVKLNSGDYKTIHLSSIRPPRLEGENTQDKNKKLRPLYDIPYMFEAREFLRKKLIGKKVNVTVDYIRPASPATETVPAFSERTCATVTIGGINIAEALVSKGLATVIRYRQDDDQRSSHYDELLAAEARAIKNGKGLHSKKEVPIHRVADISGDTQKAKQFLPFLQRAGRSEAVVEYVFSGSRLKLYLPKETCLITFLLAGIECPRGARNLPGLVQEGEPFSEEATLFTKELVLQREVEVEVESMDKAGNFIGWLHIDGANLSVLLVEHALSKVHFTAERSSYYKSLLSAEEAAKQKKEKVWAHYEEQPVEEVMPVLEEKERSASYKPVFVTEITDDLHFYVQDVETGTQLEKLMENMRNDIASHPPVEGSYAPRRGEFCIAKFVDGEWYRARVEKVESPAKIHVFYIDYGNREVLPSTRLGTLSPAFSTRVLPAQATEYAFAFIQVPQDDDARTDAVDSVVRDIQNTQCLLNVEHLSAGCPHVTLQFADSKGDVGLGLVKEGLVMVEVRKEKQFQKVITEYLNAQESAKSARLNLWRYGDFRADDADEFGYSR
# Sequence of proteins of HEK293T cells transiently overexpressing caspase-6 (Homo sapiens, UniProt P34897) (P34897 30-504): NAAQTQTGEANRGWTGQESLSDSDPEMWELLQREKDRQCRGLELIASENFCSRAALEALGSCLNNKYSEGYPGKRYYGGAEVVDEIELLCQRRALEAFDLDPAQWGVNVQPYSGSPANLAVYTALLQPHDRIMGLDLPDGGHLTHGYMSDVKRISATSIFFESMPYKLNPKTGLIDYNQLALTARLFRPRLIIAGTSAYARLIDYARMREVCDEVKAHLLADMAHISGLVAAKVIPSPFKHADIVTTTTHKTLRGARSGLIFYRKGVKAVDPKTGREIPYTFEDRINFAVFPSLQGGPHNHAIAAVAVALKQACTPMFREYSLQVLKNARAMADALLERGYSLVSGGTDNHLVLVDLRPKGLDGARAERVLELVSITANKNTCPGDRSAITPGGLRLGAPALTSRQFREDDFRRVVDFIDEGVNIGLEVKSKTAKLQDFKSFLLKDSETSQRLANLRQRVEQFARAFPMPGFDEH
# Sequence of proteins of HEK293T cells transiently overexpressing caspase-6 (Homo sapiens, UniProt P14868) (P14868 whole entry): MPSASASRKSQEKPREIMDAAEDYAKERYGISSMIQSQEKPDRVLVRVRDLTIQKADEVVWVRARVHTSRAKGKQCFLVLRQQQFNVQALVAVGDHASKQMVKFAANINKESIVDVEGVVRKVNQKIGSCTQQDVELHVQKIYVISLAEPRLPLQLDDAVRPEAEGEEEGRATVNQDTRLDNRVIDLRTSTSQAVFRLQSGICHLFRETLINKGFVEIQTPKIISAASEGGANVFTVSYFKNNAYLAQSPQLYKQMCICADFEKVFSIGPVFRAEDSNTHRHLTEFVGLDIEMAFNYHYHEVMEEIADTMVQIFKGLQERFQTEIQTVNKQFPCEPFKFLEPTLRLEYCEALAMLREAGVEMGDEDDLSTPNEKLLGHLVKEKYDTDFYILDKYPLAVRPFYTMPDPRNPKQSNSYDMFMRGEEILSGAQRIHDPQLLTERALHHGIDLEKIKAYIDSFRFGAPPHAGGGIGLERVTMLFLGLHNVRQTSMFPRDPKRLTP
# Sequence of proteins of HEK293T cells transiently overexpressing caspase-6 (Homo sapiens, UniProt P52272) (P52272 whole entry): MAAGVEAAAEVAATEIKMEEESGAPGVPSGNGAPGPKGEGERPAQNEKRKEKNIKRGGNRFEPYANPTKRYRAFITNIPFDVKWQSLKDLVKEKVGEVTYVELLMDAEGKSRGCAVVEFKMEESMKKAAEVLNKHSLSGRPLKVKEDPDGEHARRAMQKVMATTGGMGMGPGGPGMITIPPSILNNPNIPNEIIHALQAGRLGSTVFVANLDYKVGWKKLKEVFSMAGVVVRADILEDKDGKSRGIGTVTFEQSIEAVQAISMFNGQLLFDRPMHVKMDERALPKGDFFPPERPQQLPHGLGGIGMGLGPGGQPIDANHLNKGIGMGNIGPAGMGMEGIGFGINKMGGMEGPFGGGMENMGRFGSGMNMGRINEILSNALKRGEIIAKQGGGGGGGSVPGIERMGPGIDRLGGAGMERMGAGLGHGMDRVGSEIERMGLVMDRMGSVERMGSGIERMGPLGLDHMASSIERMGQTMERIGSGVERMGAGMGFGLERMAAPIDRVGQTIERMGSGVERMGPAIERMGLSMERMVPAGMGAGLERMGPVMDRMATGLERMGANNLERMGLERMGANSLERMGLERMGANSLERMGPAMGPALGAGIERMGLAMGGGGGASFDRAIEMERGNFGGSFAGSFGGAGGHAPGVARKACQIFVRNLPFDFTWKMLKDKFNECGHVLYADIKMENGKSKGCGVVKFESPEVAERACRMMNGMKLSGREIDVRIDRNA
# Sequence of proteins of HEK293T cells transiently overexpressing caspase-6 (Homo sapiens, UniProt Q00839) (Q00839 whole entry): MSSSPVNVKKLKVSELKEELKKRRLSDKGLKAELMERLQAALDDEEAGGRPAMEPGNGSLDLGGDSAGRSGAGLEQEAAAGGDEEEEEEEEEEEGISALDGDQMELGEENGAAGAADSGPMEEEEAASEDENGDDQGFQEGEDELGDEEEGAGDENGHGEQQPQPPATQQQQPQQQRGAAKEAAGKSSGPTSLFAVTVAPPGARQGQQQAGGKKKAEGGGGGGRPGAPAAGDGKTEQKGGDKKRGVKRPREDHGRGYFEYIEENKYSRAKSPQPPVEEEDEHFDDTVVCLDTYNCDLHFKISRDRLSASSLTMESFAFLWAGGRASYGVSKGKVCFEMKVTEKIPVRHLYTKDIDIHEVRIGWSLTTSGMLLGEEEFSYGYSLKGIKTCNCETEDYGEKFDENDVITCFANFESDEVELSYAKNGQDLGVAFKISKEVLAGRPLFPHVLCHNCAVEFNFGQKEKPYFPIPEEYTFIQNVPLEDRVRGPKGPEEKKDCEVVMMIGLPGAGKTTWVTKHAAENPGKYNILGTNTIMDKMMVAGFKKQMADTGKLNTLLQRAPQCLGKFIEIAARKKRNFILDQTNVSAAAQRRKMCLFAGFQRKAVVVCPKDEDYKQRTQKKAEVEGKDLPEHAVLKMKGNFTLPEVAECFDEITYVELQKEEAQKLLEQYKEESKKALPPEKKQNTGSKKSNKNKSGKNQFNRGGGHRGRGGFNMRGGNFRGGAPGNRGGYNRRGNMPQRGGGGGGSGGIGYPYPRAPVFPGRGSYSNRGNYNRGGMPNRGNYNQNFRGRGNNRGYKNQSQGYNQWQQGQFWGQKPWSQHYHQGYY
# Sequence of proteins of HEK293T cells transiently overexpressing caspase-6 (Homo sapiens, UniProt Q15029) (Q15029 whole entry): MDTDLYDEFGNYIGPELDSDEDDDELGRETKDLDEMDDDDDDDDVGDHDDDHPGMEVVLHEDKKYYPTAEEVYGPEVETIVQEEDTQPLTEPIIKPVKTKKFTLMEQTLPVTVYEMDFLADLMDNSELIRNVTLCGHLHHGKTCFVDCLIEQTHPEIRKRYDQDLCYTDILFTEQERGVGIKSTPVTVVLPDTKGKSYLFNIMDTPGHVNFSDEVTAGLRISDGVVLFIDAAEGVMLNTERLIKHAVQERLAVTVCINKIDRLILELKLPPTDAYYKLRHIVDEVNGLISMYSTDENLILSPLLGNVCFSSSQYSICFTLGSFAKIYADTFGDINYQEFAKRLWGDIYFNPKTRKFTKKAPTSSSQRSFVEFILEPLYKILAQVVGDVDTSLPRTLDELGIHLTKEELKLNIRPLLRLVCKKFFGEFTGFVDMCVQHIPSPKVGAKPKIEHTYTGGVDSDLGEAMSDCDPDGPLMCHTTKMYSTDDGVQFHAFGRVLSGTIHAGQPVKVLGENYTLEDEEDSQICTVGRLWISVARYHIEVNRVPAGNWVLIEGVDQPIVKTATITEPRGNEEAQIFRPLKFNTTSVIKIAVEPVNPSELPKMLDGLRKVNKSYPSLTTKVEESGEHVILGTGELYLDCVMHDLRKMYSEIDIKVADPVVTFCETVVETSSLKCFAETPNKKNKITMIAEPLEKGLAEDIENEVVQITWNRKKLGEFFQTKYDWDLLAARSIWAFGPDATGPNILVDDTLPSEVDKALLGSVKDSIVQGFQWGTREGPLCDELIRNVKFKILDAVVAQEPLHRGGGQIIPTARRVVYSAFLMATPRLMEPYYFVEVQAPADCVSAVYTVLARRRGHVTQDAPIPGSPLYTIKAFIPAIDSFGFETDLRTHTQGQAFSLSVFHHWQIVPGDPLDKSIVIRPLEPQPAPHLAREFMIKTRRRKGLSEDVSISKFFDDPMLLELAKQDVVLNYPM
# Sequence of proteins of HEK293T cells transiently overexpressing caspase-6 (Homo sapiens, UniProt P52209) (P52209 whole entry): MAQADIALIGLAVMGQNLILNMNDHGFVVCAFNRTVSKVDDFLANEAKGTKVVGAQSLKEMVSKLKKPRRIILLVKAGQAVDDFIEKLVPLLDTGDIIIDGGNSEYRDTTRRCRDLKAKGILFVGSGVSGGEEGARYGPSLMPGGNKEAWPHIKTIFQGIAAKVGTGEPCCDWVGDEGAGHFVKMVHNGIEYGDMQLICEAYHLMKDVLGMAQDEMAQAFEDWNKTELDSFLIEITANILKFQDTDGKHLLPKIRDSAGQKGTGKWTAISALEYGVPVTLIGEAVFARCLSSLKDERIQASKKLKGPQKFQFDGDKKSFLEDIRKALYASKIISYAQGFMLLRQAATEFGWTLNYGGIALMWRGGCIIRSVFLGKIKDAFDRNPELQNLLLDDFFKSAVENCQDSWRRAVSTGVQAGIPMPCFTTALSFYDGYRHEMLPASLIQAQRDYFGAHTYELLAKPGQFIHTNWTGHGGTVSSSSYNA
structure (smiles),measurement,setting,value
C=CS(=O)(=O)N1C[C@H](C(=O)Nc2ccc(OC(F)(F)F)cc2)C[C@@H](c2ccccc2)C1 [3a],enrich.exp.med,[1],0.8946
same,enrich.exp.med,[2],0.6006
same,enrich.exp.med,[3],0.8565
same,enrich.exp.med,[4],0.7148
same,enrich.exp.med,"[5]; Comp, protein PSMA4 P25789",0.9624
same,enrich.exp.med.lin,[5]; [18],1.949
same,enrich.exp.med.log2,[5]; [18],0.9624
same,enrich.exp.med,[6],0.7747
same,enrich.exp.med,[7],0.5876
same,enrich.exp.med,[8],0.7402
same,enrich.exp.med,[9],0.9271
same,enrich.exp.med,[10],0.6442
same,enrich.exp.med,[11],0.6474
same,enrich.exp.med,[12],0.7266
same,enrich.exp.med,[13],0.7588
same,enrich.exp.med,[14],0.6324
same,enrich.exp.med,[15],0.5983
same,enrich.exp.med,[16],0.8422
same,enrich.exp.med,[17],0.6493
